Measurements reported in US5179109A (priority 1988, dated 1993).

Key:
site of PCP = assay: Affinity for the PCP site, competition with (^3 H)PCP on rat brain homogenates; format: binding; details: rat brain homogenate, pH 7.7, 25° C., 1 nmole tritiated ligand
Swiss mice = assay: Simple rotary bar test (dose at which 50% of the animals drop); format: in vivo; details: Mus musculus, sc; Swiss mice, subcutaneous, dose at which 50% of the animals drop; read-out: ED50
Method: In this example, the properties of compounds 1 to 5 and 8 to 11 are tested on Swiss mice.
Different doses of the compounds to be tested are administered subcutaneously to the mice and the latter are then placed in batches of 10 on a rotary bar, being separated from one another by separating disks. This bar is made from scraped wood, has a diameter of 3 cm and is moved horizontally with a uniform circular movement about its axis at a speed of 10 rpm.
Determination takes place of the ED50, which is the dose at which 50% of the animals drop, the dose being expressed in mg/kg.

[1] = target: cerebral cholinergic muscarinic receptor; format: binding, rat; details: for IC50: rat brain homogenate, read-out: ^3 HQNB IC50; for ^3 HQNB/^3 HTCP: ratio of IC50
[2] = Subcutaneous LD50 in the rat; details: in vivo, sc
receptor of the opiates = target: T1, receptor of the opiates (Rattus norvegicus, UniProt P33535); assay: Competition test with ^3 H-DHM for the receptor of the opiates; format: binding
T1 construct: variable concentrations of the tested compound and a rat brain homogenate; from tissue; host or cells: rat brain homogenate
T1 sequence (P33535 whole entry): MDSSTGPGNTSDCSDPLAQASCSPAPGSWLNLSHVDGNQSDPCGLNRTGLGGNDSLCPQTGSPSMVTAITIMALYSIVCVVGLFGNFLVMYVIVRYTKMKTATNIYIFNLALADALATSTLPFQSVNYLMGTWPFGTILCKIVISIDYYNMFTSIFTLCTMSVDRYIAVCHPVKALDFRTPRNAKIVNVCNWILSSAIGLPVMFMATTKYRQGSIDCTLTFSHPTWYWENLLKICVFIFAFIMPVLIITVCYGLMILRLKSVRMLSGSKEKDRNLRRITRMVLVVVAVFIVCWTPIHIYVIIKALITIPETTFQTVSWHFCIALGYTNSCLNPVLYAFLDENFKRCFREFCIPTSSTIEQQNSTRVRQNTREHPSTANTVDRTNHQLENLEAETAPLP
Method: In this test, a fixed concentration of ^3 H-DHM labelled morphine was incubated in the presence of variable concentrations of the tested compound and a rat brain homogenate. The concentration of the compound preventing the fixing of 50% of ^3 H-DHM (IC50) is a measure of the affinity of the compound for the receptor of the opiates. The latter also gives the results obtained with PCP and TCP, as well as the ratios H^3 DA/^3 H-TCP, ^3 HQNB/^3 H-TCP and ^3 HDHM/^3 HTCP obtained with the different tested compounds.

[3] = system: pyramidal cells Ca3 of Ammon's horn; assay: Cerebral aging in mice, histology of the hippocampus; format: in vivo; details: 5 mg/kg intraperitoneal at 23rd, 24th and 25th months; 26th month
Method: (§1) This example illustrates the effect of arylcyclohexylamines on cerebral aging. No matter what the cause of the cerebral aging (vascular or degenerative), it leads to a neuronal loss at the cerebral cortex, the hippocampas and to a lesser extent the cerebellum. This cellular loss can be quantified by simple histological methods and evaluated on a larger scale by means of semi-automatic image analysis methods.
(§2) In this example 6 mice aged 23 months by intraperitonealy injecting 3 of them with 5 mg/kg of TCP in the physiological solute at the 23rd, 24th and 25th months and 3 other mice were intraperitonealy injected with the physiological solute only. At the 26th month, all the mice were sacrificed by intracardial perfusion of a 5% glutaraldehyde solution, the brains were cut up with the vibratone and the sections dyed by the NISSL method.
(§3) The results obtained are given in FIGS. 2 to 5, which are sections of the brain and the cerebellum of the treated mice and the untreated control mice.

[4] = system: synaptosomal striatal (^3 H)DA capture; assay: Inhibition test of the synaptosomal striatal sample (capture) of (^3 H)DA; format: biochemical, Wistar rats
Method: This test is carried out according to the method used by Vignon and Lazdunski operating in the following way. Wistar rats weighing 200 to 250 g are killed by cervical dislocation. Their brains are rapidly removed and the striae dissected on ice. The striae are then homogenized with a Teflon glass Potter homogenizer in 50 volumes of tris HCl 10 mM buffer containing 0.32M of sucrose at pH 7.4 and they are centrifuged at 1000 g for 10 min. The supernatants are further centrifuged at 10000 g for 20 min. The resulting deposits P2 containing the crude synaptosomes are used without supplementary purification.
The synaptosomes are balanced with the compound to be tested for 30 min at 30° C. in the Ringer medium (mM: 140 NaCl, 5 KCl, 2.6 CaCl2, 1.3 MgSO4, 10 tris-HCl, pH=7.4)+200 μM of pargyline. This is followed by the addition of (^3 H)DA labelled dopamine at a final concentration of 5 nM for 5 min at 30° C. and sampling is interrupted by filtration of the incubate (150 μl) on GF/B filters. The non-specific sample is measured at 4° C. in parallel incubations and is deducted from the total sample at 30° C. The IC50 is the compound concentration preventing 50% of the specific capture compared with the control in the absence of an inhibitor.

[5] = system: cortical and hippocampal neurons; assay: In vitro neuron culture survival after 2 months, count of neurons (Example 23); format: cell-based, rat; details: single dose at start of third week; TCP 2.5 and 20, compound 9 and MK801 2.5 and 5 μmole/l; control 50 neurons/mm^2
Method: This example also illustrates the effect of the arylcyclohexylamines according to the invention on the in vitro neuron culture survival. As in example 21, cortical and hippocampal neuron cultures are prepared. At the start of the third culturing week, the cells are treated with a single dose of the compound to be tested and culturing is continued for two months. At the end of this period, the cells which were fixed and dyed to reveal the specific enolase of the neurons are subject to counts in order to determine the quantity of cells per surface unit.
The results obtained are given in FIG. 1, which is a histogram indicating the number of cells/mm^2 which survived after 2 months culturing.
The results are given for the control, i.e. for untreated cultures, cultures treated with 2.5 and 20 μmole/l of TCP, cultures treated by compound no. 9 at concentrations of 2.5 and 5 μmole/l and cultures treated by compound MK801 at concentrations of 2.5 and 5 μmole/l. Compound MK801, which is known to have a neuroprotection activity, is (+)-methyl-5-dihydro-10,11(5H)dibenzo(A,D) cyclohepteneimine-5,10 of formula: [drawing 38] From FIG. 1 it can be seen that the control cultures, after surviving for 2 months, on average contain 50 neurons/mm^2. The treated cultures, no matter what the compound and dose used, contain more than 500 neurons/mm^2.

Purkinje cells = assay: Cerebral aging in mice, histology of the cerebellum; format: in vivo; details: 5 mg/kg intraperitoneal at 23rd, 24th and 25th months; 26th month
Method: as §1, §2, §3

site of TCP = assay: Affinity for the TCP site, competition with (^3 H)TCP on rat brain homogenates; format: binding; details: rat brain homogenate, pH 7.7, 25° C., 1 nmole tritiated ligand; read-out: ^3 HTCP IC50

| Compound | IC50 (site of PCP) [nM] | ED50 (Swiss mice) [mg/kg] | IC50 [1] [nM] | ^3 HQNB/^3 HTCP [1] | LD50 [2] [mg/kg] | IC50 (receptor of the opiates; rat brain homogenate, read-out: ^3 HDHM IC50) [nM] | ^3 HDHM/^3 HTCP (receptor of the opiates; ratio of IC50) | rarefaction of the pyramidal cells Ca3 of Ammon's horn versus untreated [3] | IC50 ([4]; rat striatal synaptosomes, 5 nM (^3 H)DA, 5 min at 30° C., pH 7.4, read-out: ^3 HDA IC50) [nM] | ^3 HDA/^3 H-TCP ([4]; ratio of IC50) | number of neurons which survived after 2 months culturing [5] | rarefication of the Purkinje cells at the cerebellum versus untreated (Purkinje cells) | IC50 (site of TCP) [nM] |
| --- | --- | --- | --- | --- | --- | --- | --- | --- | --- | --- | --- | --- | --- |
| OCC1CCCN(C2(c3ccccc3)CCCCC2)C1 (centres unmarked) [compound 4, [(hydroxymethyl-3piperidino)-1]-1phenyl-1 cyclohexane] | 1000 | 1.8 | 100000 | 100 | > 60 |  |  |  |  |  |  |  |  |
| c1csc(C2(N3CCCCC3)CCCCC2)c1 [TCP, ((2-thienyl)-1 cyclohexyl)-N-piperidine, reference compound] | 26 | 2.3 | 21000 | 333 |  | 11000 | 74.6 | much less marked | 1600 | 25.39 | more than 500 neurons/mm^2 | much less significant | 63 |
